Measured values reported in patent publication US11318232B2, “Compositions and methods for delivering drugs to a vessel wall” (Interface Biologics, Inc., priority 2018, dated 2022).

Tested on: Rat Aortic Smooth Muscle Cells (RASMCs)
Settings: drug spiked directly into growth media, 20 ng/mL

`CO[C@H]1C[C@@H]2CC[C@@H](C)[C@@](O)(O2)C(=O)C(=O)N2CCCC[C@H]2C(=O)O[C@H]([C@H](C)C[C@@H]2CC[C@@H](O)[C@H](OC)C2)CC(=O)[C@H](C)/C=C(\C)[C@@H](O)[C@@H](OC)C(=O)[C@H](C)C[C@H](C)/C=C/C=C/C=C/1C` [sirolimus] was tested, and the “Normalized cell growth at 72 hours” value was 0.463±0.035.
